Measured values: US7902182B2, “HIV integrase inhibitors” (priority 2005, dated 2011)

Target: T1, HIV-integrase (Human immunodeficiency virus type 1 group M subtype B, UniProt P12497)
T1 construct: Recombinant integrase (0.26 ng) was incubated with the beads
Assay: HIV-Integrase Inhibition Activity (SPA bead strand transfer assay)
Type: biochemical
Details: recombinant integrase, biotin labeled substrate DNA on SPA beads, P33 labeled target DNA; read-out: Activity (IC50 against HIV-integrase)
Procedure: HIV-Integrase InhibitionActivity. To evaluate in-vitro activity against HIV-integrase, 5 pmole of biotin labeled substrate DNA was bound to 100 μg of Streptavidin coated PVT SPA beads (Amersham Pharmacia Biotech). Recombinant integrase (0.26 ng) was incubated with the beads for 90 min at 37° C. Unbound enzyme was removed by washing the complex followed by addition of inhibitors and 0.1 fmol of P33 labeled target DNA. The reaction was stopped by adding EDTA to a final concentration of 10 mM. Samples were counted in TopCountNXT (Packard) and the CPM was used as a measure of integration. The reaction condition was as described in A. Engelman and R. Craigie, J. Virol. 69, 5908-5911 (1995). The sequences of substrate and target DNA were described in Nucleic Acid Research 22, 1121-1122 (1994).
Activity equal to A refers to a compound having IC50=0.002 to 0.10 μM while B and C denote compounds having IC50=0.1 to 1.0 μM and IC50≧1.0 μM respectively.

| Compound | IC50 [nM] |
| --- | --- |
| CC1(C)OCCn2c1nc(C(=O)NCc1ccc(F)cc1S(=O)(=O)N1CCN(C(=O)N3CCOCC3)CC1)c(O)c2=O [Example 17] | 2 to 100 |
| C[C@@H]1CN(S(=O)(=O)c2cc(F)ccc2CNC(=O)c2nc3n(c(=O)c2O)CCOC3(C)C)CCN1C(=O)OC(C)(C)C [Example 37] | 2 to 100 |
| CN(C)C(=O)N1CCN(S(=O)(=O)c2cc(F)ccc2CNC(=O)c2nc3n(c(=O)c2O)CCOC32CCOCC2)CC1 [Example 7] | 2 to 100 |
| CN(C)C(=O)N1CCN(S(=O)(=O)c2cc(F)ccc2CNC(=O)c2nc3n(c(=O)c2O)CCOC3(C)C)CC1 [Example 19] | 2 to 100 |
| COC(=O)N1CCN(S(=O)(=O)c2cc(F)ccc2CNC(=O)c2nc3n(c(=O)c2O)CCOC32CCOCC2)CC1 [Example 3] | 2 to 100 |
| CC1(C)OCCn2c1nc(C(=O)NCc1ccc(F)cc1S(=O)(=O)N1CCC1)c(O)c2=O [Example 26] | 2 to 100 |
| CC1(C)OCCn2c1nc(C(=O)NCc1ccc(F)cc1S(=O)(=O)N1CCOCC1)c(O)c2=O [Example 27] | 2 to 100 |
| C[C@@H]1CN(S(=O)(=O)c2cc(F)ccc2CNC(=O)c2nc3n(c(=O)c2O)CCOC3(C)C)CCN1 [Example 41] | 2 to 100 |
| O=C(NCc1ccc(F)cc1S(=O)(=O)N1CCOCC1)c1nc2n(c(=O)c1O)CCOC21CCOCC1 [Example 11] | 2 to 100 |
| CC1(C)OCCn2c1nc(C(=O)NCc1ccc(F)cc1S(=O)(=O)N1CCNCC1)c(O)c2=O [Example 14] | 2 to 100 |
| O=C(NCc1ccc(F)cc1S(=O)(=O)N1CCOCC1)c1nc2n(c(=O)c1O)CCOC21CCCC1 [Example 12] | 2 to 100 |
| CC1(C)OCCn2c1nc(C(=O)NCc1ccc(F)cc1S(=O)(=O)N1CCC(O)CC1)c(O)c2=O [Example 25] | 2 to 100 |
| CC1CN(S(=O)(=O)c2cc(F)ccc2CNC(=O)c2nc3n(c(=O)c2O)CCOC3(C)C)CC(C)N1 (stereo not shown) [Example 35] | 2 to 100 |
| CS[C@@H]1COC[C@H]1N1CCN(S(=O)(=O)c2cc(F)ccc2CNC(=O)c2nc3n(c(=O)c2O)CCOC3(C)C)CC1 [Example 38] | 2 to 100 |
| CC(=O)N1CCN(S(=O)(=O)c2cc(F)ccc2CNC(=O)c2nc3n(c(=O)c2O)CCOC3(C)C)CC1 [Example 20] | 2 to 100 |
| O=C(NCc1ccc(F)cc1S(=O)(=O)N1CCNCC1)c1nc2n(c(=O)c1O)CCOC21CCOCC1 [Example 1] | 2 to 100 |
| CN(C)S(=O)(=O)N1CCN(S(=O)(=O)c2cc(F)ccc2CNC(=O)c2nc3n(c(=O)c2O)CCOC32CCOCC2)CC1 [Example 8] | 2 to 100 |
| CC1(C)OCCn2c1nc(C(=O)NCc1ccc(F)cc1S(=O)(=O)N1CCOC(CN3CCCC3)C1)c(O)c2=O (stereo not shown) [Example 39] | 2 to 100 |
| CC1(C)OCCn2c1nc(C(=O)NCc1ccc(F)cc1S(=O)(=O)N1CCC3(CC1)OCCO3)c(O)c2=O [Example 31] | 2 to 100 |
| CN1CCN(S(=O)(=O)c2cc(F)ccc2CNC(=O)c2nc3n(c(=O)c2O)CCOC3(C)C)CC1 [Example 15] | 2 to 100 |

| Compound | IC50 [nM] |
| --- | --- |
| CN1CCN(S(=O)(=O)c2cc(F)ccc2CNC(=O)c2nc3n(c(=O)c2O)CCOC32CCC2)CC1 [Example 24] | 2 to 100 |
| O=C(NCc1ccc(F)cc1S(=O)(=O)N1CCOCC1)c1nc2n(c(=O)c1O)CCCC21CCCC1 [Example 13] | 2 to 100 |
| CC1(C)OCCn2c1nc(C(=O)NCc1ccc(F)cc1S(=O)(=O)N1CCN(S(C)(=O)=O)CC1)c(O)c2=O [Example 16] | 2 to 100 |
| CC(=O)N(C)C1CCN(S(=O)(=O)c2cc(F)ccc2CNC(=O)c2nc3n(c(=O)c2O)CCOC3(C)C)C1 (stereo not shown) [Example 34] | 2 to 100 |
| CN1CCN(S(=O)(=O)c2cc(F)ccc2CNC(=O)c2nc3n(c(=O)c2O)CCOC32CCCC2)CC1 [Example 23] | 2 to 100 |
| CN(C)[C@@H]1COC[C@H]1N1CCN(S(=O)(=O)c2cc(F)ccc2CNC(=O)c2nc3n(c(=O)c2O)CCOC3(C)C)CC1 [Example 40] | 2 to 100 |
| C[C@@H]1CN(S(=O)(=O)c2cc(F)ccc2CNC(=O)c2nc3n(c(=O)c2O)CCOC3(C)C)CCN1C [Example 42] | 2 to 100 |
| CC1(C)OCCn2c1nc(C(=O)NCc1ccc(F)cc1S(=O)(=O)N1CCCCC1)c(O)c2=O [Example 30] | 2 to 100 |
| CC1(C)OCCn2c1nc(C(=O)NCc1ccc(F)cc1S(=O)(=O)N1CCC(O)C1)c(O)c2=O (stereo not shown) [Example 29] | 2 to 100 |
| CC(=O)N1CCN(S(=O)(=O)c2cc(F)ccc2CNC(=O)c2nc3n(c(=O)c2O)CCOC32CCOCC2)CC1 [Example 10] | 2 to 100 |
| CC1(C)OCCn2c1nc(C(=O)NCc1ccc(F)cc1S(=O)(=O)N1CCCCCC1)c(O)c2=O [Example 28] | 2 to 100 |
| O=C(NCc1ccc(F)cc1S(=O)(=O)N1CCNCC1)c1nc2n(c(=O)c1O)CCOC21CCCC1 [Example 22] | 2 to 100 |
| CN1CCN(S(=O)(=O)c2cc(F)ccc2CNC(=O)c2nc3n(c(=O)c2O)CCOC32CCOCC2)CC1 [Example 2] | 2 to 100 |
| COC(=O)N1CCN(S(=O)(=O)c2cc(F)ccc2CNC(=O)c2nc3n(c(=O)c2O)CCOC3(C)C)CC1 [Example 18] | 2 to 100 |
| CC1CN(S(=O)(=O)c2cc(F)ccc2CNC(=O)c2nc3n(c(=O)c2O)CCOC3(C)C)CC(C)N1C (stereo not shown) [Example 36] | 2 to 100 |
| CN(C)S(=O)(=O)N1CCN(S(=O)(=O)c2cc(F)ccc2CNC(=O)c2nc3n(c(=O)c2O)CCOC3(C)C)CC1 [Example 21] | 2 to 100 |
| CC1(C)OCCn2c1nc(C(=O)NCc1ccc(F)cc1S(=O)(=O)N1CCCC1)c(O)c2=O [Example 33] | 2 to 100 |
| O=C(NCc1ccc(F)cc1S(=O)(=O)N1CCN(C(=O)N2CCOCC2)CC1)c1nc2n(c(=O)c1O)CCOC21CCOCC1 [Example 9] | 2 to 100 |
| CC1(C)OCCn2c1nc(C(=O)NCc1ccc(F)cc1S(=O)(=O)N1CCC3(CCNC3=O)CC1)c(O)c2=O [Example 32] | 2 to 100 |
| CCN1CCN(S(=O)(=O)c2cc(F)ccc2CNC(=O)c2nc3n(c(=O)c2O)CCOC32CCOCC2)CC1 [Example 5] | 2 to 100 |
